Results: PubChem BioAssay (NCI)
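Briefly, cells in 96-well plates were exposed to five compound concentrations for 48 h, and endpoints were estimated by linear interpolation. TGI: total growth inhibition.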

What was measured:
Assay in all cases: growth of human tumour cells (NCI), 48 h
786-0 renal = tested on: 786-0 renal
A549 NSCLC = tested on: A549 NSCLC
ACHN renal = tested on: ACHN renal
CCRF-CEM leukemia = tested on: CCRF-CEM leukemia
COLO 205 colon = tested on: COLO 205 colon
DLD-1 colon = tested on: DLD-1 colon
DMS 273 small cell lung = tested on: DMS 273 small cell lung
EKVX NSCLC = tested on: EKVX NSCLC
HCC-2998 colon = tested on: HCC-2998 colon
HCT-116 colon = tested on: HCT-116 colon
HCT-15 colon = tested on: HCT-15 colon
HL-60(TB) leukemia = tested on: HL-60(TB) leukemia
HOP-18 NSCLC = tested on: HOP-18 NSCLC
HOP-92 NSCLC = tested on: HOP-92 NSCLC
HT29 colon = tested on: HT29 colon
IGROV1 ovarian = tested on: IGROV1 ovarian
K-562 leukemia = tested on: K-562 leukemia
KM12 colon = tested on: KM12 colon
KM20L2 colon = tested on: KM20L2 colon
LOX IMVI melanoma = tested on: LOX IMVI melanoma
LXFL 529 NSCLC = tested on: LXFL 529 NSCLC
M14 melanoma = tested on: M14 melanoma
M19-MEL melanoma = tested on: M19-MEL melanoma
MALME-3M melanoma = tested on: MALME-3M melanoma
MOLT-4 leukemia = tested on: MOLT-4 leukemia
NCI-H226 lung = tested on: NCI-H226 lung
NCI-H23 lung = tested on: NCI-H23 lung
NCI-H460 lung = tested on: NCI-H460 lung
NCI-H522 lung = tested on: NCI-H522 lung
OVCAR-3 ovarian = tested on: OVCAR-3 ovarian
OVCAR-4 ovarian = tested on: OVCAR-4 ovarian
OVCAR-5 ovarian = tested on: OVCAR-5 ovarian
OVCAR-8 ovarian = tested on: OVCAR-8 ovarian
RPMI-8226 leukemia = tested on: RPMI-8226 leukemia
RXF 393 renal = tested on: RXF 393 renal
SF-268 CNS = tested on: SF-268 CNS
SF-295 CNS = tested on: SF-295 CNS
SF-539 CNS = tested on: SF-539 CNS
SK-MEL-2 melanoma = tested on: SK-MEL-2 melanoma
SK-MEL-28 melanoma = tested on: SK-MEL-28 melanoma
SK-MEL-5 melanoma = tested on: SK-MEL-5 melanoma
SK-OV-3 ovarian = tested on: SK-OV-3 ovarian
SN12C renal = tested on: SN12C renal
SNB-19 CNS = tested on: SNB-19 CNS
SNB-75 CNS = tested on: SNB-75 CNS
SNB-78 CNS = tested on: SNB-78 CNS
SR leukemia = tested on: SR leukemia
SW-620 colon = tested on: SW-620 colon
TK-10 renal = tested on: TK-10 renal
U251 CNS = tested on: U251 CNS
UACC-257 melanoma = tested on: UACC-257 melanoma
UACC-62 melanoma = tested on: UACC-62 melanoma
UO-31 renal = tested on: UO-31 renal
XF 498 CNS = tested on: XF 498 CNS
A498 renal = tested on: A498 renal
CAKI-1 renal = tested on: CAKI-1 renal
DMS 114 small cell lung = tested on: DMS 114 small cell lung
HOP-62 NSCLC = tested on: HOP-62 NSCLC

With `NC1=NS(=O)(=O)Nc2nc(-c3ccccc3)c(-c3ccccc3)nc21` the TGI (786-0 renal) was over 100 µM, the TGI (A549 NSCLC) was over 100 µM and the TGI (ACHN renal) was over 100 µM. The TGI (CCRF-CEM leukemia) was over 100 µM, the TGI (COLO 205 colon) was over 100 µM and the TGI (DLD-1 colon) was over 100 µM. It also gave a TGI (DMS 273 small cell lung) of over 100 µM, a TGI (EKVX NSCLC) of over 100 µM and a TGI (HCC-2998 colon) of over 100 µM. For the same compound, the TGI (HCT-116 colon) was over 100 µM, the TGI (HCT-15 colon) was over 100 µM and the TGI (HL-60(TB) leukemia) was over 100 µM. For the same compound, the TGI (HOP-18 NSCLC) was over 100 µM, the TGI (HOP-92 NSCLC) was over 100 µM and the TGI (HT29 colon) was over 100 µM. For the same compound, the TGI (IGROV1 ovarian) was over 100 µM, the TGI (K-562 leukemia) was over 100 µM and the TGI (KM12 colon) was over 100 µM. The TGI (KM20L2 colon) was over 100 µM, the TGI (LOX IMVI melanoma) was over 100 µM and the TGI (LXFL 529 NSCLC) was over 100 µM. The TGI (M14 melanoma) was over 100 µM, the TGI (M19-MEL melanoma) was over 100 µM and the TGI (MALME-3M melanoma) was over 100 µM. The TGI (MOLT-4 leukemia) was over 100 µM, the TGI (NCI-H226 lung) was over 100 µM and the TGI (NCI-H23 lung) was over 100 µM. For the same compound, the TGI (NCI-H460 lung) was over 100 µM, the TGI (NCI-H522 lung) was over 100 µM and the TGI (OVCAR-3 ovarian) was over 100 µM. It also gave a TGI (OVCAR-4 ovarian) of over 100 µM, a TGI (OVCAR-5 ovarian) of over 100 µM and a TGI (OVCAR-8 ovarian) of over 100 µM. The TGI (RPMI-8226 leukemia) was over 100 µM, the TGI (RXF 393 renal) was over 100 µM and the TGI (SF-268 CNS) was over 100 µM. The TGI (SF-295 CNS) was over 100 µM, the TGI (SF-539 CNS) was over 100 µM and the TGI (SK-MEL-2 melanoma) was over 100 µM. It also gave a TGI (SK-MEL-28 melanoma) of over 100 µM, a TGI (SK-MEL-5 melanoma) of over 100 µM and a TGI (SK-OV-3 ovarian) of over 100 µM. It also gave a TGI (SN12C renal) of over 100 µM, a TGI (SNB-19 CNS) of over 100 µM and a TGI (SNB-75 CNS) of over 100 µM. The TGI (SNB-78 CNS) was over 100 µM, the TGI (SR leukemia) was over 100 µM and the TGI (SW-620 colon) was over 100 µM. For the same compound, the TGI (TK-10 renal) was over 100 µM, the TGI (U251 CNS) was over 100 µM and the TGI (UACC-257 melanoma) was over 100 µM. For the same compound, the TGI (UACC-62 melanoma) was over 100 µM, the TGI (UO-31 renal) was over 100 µM and the TGI (XF 498 CNS) was over 100 µM.
`COS(=O)(=O)OCCC(NC(=O)OCc1ccccc1)C(=O)OCc1ccccc1` (stereo unspecified) gave a TGI (786-0 renal) of over 100 µM, a TGI (A498 renal) of over 100 µM and a TGI (A549 NSCLC) of over 100 µM. It also gave a TGI (ACHN renal) of over 100 µM, a TGI (CAKI-1 renal) of over 100 µM and a TGI (CCRF-CEM leukemia) of over 100 µM. For the same compound, the TGI (COLO 205 colon) was over 100 µM, the TGI (DLD-1 colon) was over 100 µM and the TGI (DMS 114 small cell lung) was over 100 µM. For the same compound, the TGI (DMS 273 small cell lung) was over 100 µM, the TGI (EKVX NSCLC) was over 100 µM and the TGI (HCC-2998 colon) was over 100 µM. The TGI (HCT-116 colon) was over 100 µM, the TGI (HCT-15 colon) was over 100 µM and the TGI (HL-60(TB) leukemia) was over 100 µM. For the same compound, the TGI (HOP-18 NSCLC) was over 100 µM, the TGI (HOP-62 NSCLC) was over 100 µM and the TGI (HOP-92 NSCLC) was over 100 µM. For the same compound, the TGI (HT29 colon) was over 100 µM, the TGI (IGROV1 ovarian) was over 100 µM and the TGI (K-562 leukemia) was over 100 µM. It also gave a TGI (KM12 colon) of over 100 µM, a TGI (KM20L2 colon) of over 100 µM and a TGI (LOX IMVI melanoma) of over 100 µM. The TGI (LXFL 529 NSCLC) was over 100 µM, the TGI (M14 melanoma) was over 100 µM and the TGI (M19-MEL melanoma) was over 100 µM. It also gave a TGI (MALME-3M melanoma) of over 100 µM, a TGI (MOLT-4 leukemia) of over 100 µM and a TGI (NCI-H226 lung) of over 100 µM. The TGI (NCI-H23 lung) was over 100 µM, the TGI (NCI-H460 lung) was over 100 µM and the TGI (NCI-H522 lung) was over 100 µM. It also gave a TGI (OVCAR-3 ovarian) of over 100 µM, a TGI (OVCAR-4 ovarian) of over 100 µM and a TGI (OVCAR-5 ovarian) of over 100 µM. It also gave a TGI (OVCAR-8 ovarian) of over 100 µM, a TGI (RPMI-8226 leukemia) of over 100 µM and a TGI (SF-268 CNS) of over 100 µM. The TGI (SF-295 CNS) was over 100 µM, the TGI (SF-539 CNS) was over 100 µM and the TGI (SK-MEL-2 melanoma) was over 100 µM. It also gave a TGI (SK-MEL-28 melanoma) of over 100 µM, a TGI (SK-MEL-5 melanoma) of over 100 µM and a TGI (SK-OV-3 ovarian) of over 100 µM. The TGI (SN12C renal) was over 100 µM, the TGI (SNB-19 CNS) was over 100 µM and the TGI (SNB-75 CNS) was over 100 µM. For the same compound, the TGI (SNB-78 CNS) was over 100 µM, the TGI (SW-620 colon) was over 100 µM and the TGI (TK-10 renal) was over 100 µM. It also gave a TGI (U251 CNS) of over 100 µM, a TGI (UACC-257 melanoma) of over 100 µM and a TGI (UACC-62 melanoma) of over 100 µM. The TGI (UO-31 renal) was over 100 µM.
Work on `O=c1c2c([nH]c3cc4c(cc13)OCO4)-c1ccccc1C2` yielded a TGI (786-0 renal) of over 100 µM, a TGI (A549 NSCLC) of over 100 µM and a TGI (ACHN renal) of 53.8 µM. The TGI (CAKI-1 renal) was over 100 µM, the TGI (CCRF-CEM leukemia) was 71.4 µM and the TGI (COLO 205 colon) was 31.5 µM. For the same compound, the TGI (DLD-1 colon) was 58.7 µM, the TGI (DMS 273 small cell lung) was 42.3 µM and the TGI (EKVX NSCLC) was over 100 µM. For the same compound, the TGI (HCC-2998 colon) was 84.1 µM, the TGI (HCT-116 colon) was 37.4 µM and the TGI (HCT-15 colon) was over 100 µM. It also gave a TGI (HL-60(TB) leukemia) of 70.1 µM, a TGI (HOP-18 NSCLC) of 68.1 µM and a TGI (HOP-62 NSCLC) of 52.4 µM. For the same compound, the TGI (HOP-92 NSCLC) was 56.3 µM, the TGI (HT29 colon) was 33 µM and the TGI (IGROV1 ovarian) was 49.7 µM. The TGI (K-562 leukemia) was over 100 µM, the TGI (KM12 colon) was 42.8 µM and the TGI (KM20L2 colon) was 36.7 µM. The TGI (LOX IMVI melanoma) was 31.7 µM, the TGI (LXFL 529 NSCLC) was 63.7 µM and the TGI (M14 melanoma) was 46.5 µM. For the same compound, the TGI (MALME-3M melanoma) was 62.9 µM, the TGI (MOLT-4 leukemia) was 82 µM and the TGI (NCI-H226 lung) was 86.7 µM. It also gave a TGI (NCI-H23 lung) of 67.5 µM, a TGI (NCI-H460 lung) of 63.9 µM and a TGI (NCI-H522 lung) of 55.5 µM. For the same compound, the TGI (OVCAR-3 ovarian) was 51.6 µM, the TGI (OVCAR-4 ovarian) was over 100 µM and the TGI (OVCAR-8 ovarian) was over 100 µM. The TGI (RPMI-8226 leukemia) was 48.2 µM, the TGI (RXF 393 renal) was 34.2 µM and the TGI (SF-268 CNS) was over 100 µM. For the same compound, the TGI (SF-295 CNS) was 84.8 µM, the TGI (SF-539 CNS) was 34.7 µM and the TGI (SK-MEL-2 melanoma) was 28.9 µM. It also gave a TGI (SK-MEL-28 melanoma) of 59.9 µM, a TGI (SK-MEL-5 melanoma) of 29.6 µM and a TGI (SK-OV-3 ovarian) of over 100 µM. For the same compound, the TGI (SN12C renal) was 84.6 µM, the TGI (SNB-19 CNS) was over 100 µM and the TGI (SNB-78 CNS) was over 100 µM. It also gave a TGI (SR leukemia) of 56.1 µM, a TGI (SW-620 colon) of over 100 µM and a TGI (TK-10 renal) of 78.5 µM. For the same compound, the TGI (U251 CNS) was 35.6 µM, the TGI (UACC-62 melanoma) was 32.3 µM and the TGI (UO-31 renal) was 86.1 µM. It also gave a TGI (XF 498 CNS) of 49.4 µM.
